Like-named read-outs stand apart in the source and are kept apart here.
How the values were obtained:
[1] = test system: P. falciparum female gametocytes; assay: P. falciparum female gametogenesis assay (Pf FGAA); settings: 1: YES; 0: NO
[2] = test system: P. falciparum late stage (stages IV-V) gametocytes; design: method as in Almela et al 2016; settings: TCAMS screen comparison; ref Almela et al 2016; read-out: Pf GCT ATP IC50; cited from earlier work
HepG2 cells [3] = assay: HepG2 cytotoxicity assay; settings: HepG2 cytotoxicity unified across the three screens
Method in brief: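 Here viability after a 48 h compound incubation (37°C, humidified 5% CO2) is measured by fluorescence and expressed as percent inhibition, with doxorubicin at 50 μM and DMSO as the bounding controls.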

HepG2 cells [4] = settings: cited from earlier work
[5] = test system: P. falciparum late stage (stages IV-V) gametocytes; assay: P. falciparum late stage gametocyte ATP depletion assay (Pf GC-ATP); settings: 1: YES; 0: NO
[6] = test system: P. falciparum female gametocytes; design: method as in Miguel-Blanco et al 2017; settings: TCAMS screen comparison; ref Miguel-Blanco et al 2017; read-out: Pf FGAA IC50; cited from earlier work
[7] = value reported with the Pf FGAA screen, ref Miguel-Blanco et al 2017
[8] = value reported with the Pf GCT ATP screen, ref Almela et al 2016

Row | Compound | Is compound selective in assay? Pf FGAA active? [1] | IC50 [2] | Unified cytotox (HepG2 cells [3]) | HepG2 cytoxicity (HepG2 cells [4]; [7]) | HepG2 cytoxicity (HepG2 cells [4]; [8]) | Is compound selective in assay? Pf GC-ATP active? [5] | IC50 [6]
1 | CC(C)Oc1ccc2ccccc2c1CNCCCCCCNCc1c(OC(C)C)ccc2ccccc12.CS(=O)(=O)O [TCMDC-137965] | 0 (0: NO) | 140 nM | 2.14 µM | 1.91 µM | 2.38 µM | 1 (1: YES) | 950 nM
2 | CCCOc1ccc2ccccc2c1CNCCCCCCNCc1c(OCCC)ccc2ccccc12.CS(=O)(=O)O [TCMDC-137966] | 0 (0: NO) | 340 nM | 2.55 µM | 2.00 µM | 3.1 µM | 0 (0: NO) | 1030 nM
3 | CC(C)COc1ccc2ccccc2c1CNCCCCCCNCc1c(OCC(C)C)ccc2ccccc12.CS(=O)(=O)O [TCMDC-137972] | 0 (0: NO) | 100 nM | 2.03 µM | 2.19 µM | 1.88 µM | 1 (1: YES) | 810 nM
4 | CC(C)(C)c1ccc(-c2cc3c(ccc4nc(N)nc(N)c43)[nH]2)cc1 [TCMDC-137977] | 0 (0: NO) | 550 nM | 2.56 µM | 1.86 µM | 3.26 µM | 0 (0: NO) | 770 nM
5 | CC(C)(C)c1ccc(-c2nc3c(ccc4nc(N)nc(N)c43)[nH]2)cc1.Cl [TCMDC-137984] | 1 (1: YES) | 210 nM | 2.98 µM | 2.12 µM | 3.85 µM | 1 (1: YES) | 260 nM
6 | CCCCCCCCN1CCN(CCCCCCNc2c3ccccc3nc3ccccc23)CC1.Cl [TCMDC-138015] | 0 (0: NO) | 250 nM | 3.23 µM | 3.35 µM | 3.1 µM | 1 (1: YES) | 640 nM
7 | COc1cc2nc(NCc3cccc(CNC(=O)c4ccc(-c5ccc(C(C)=O)cc5)cc4)c3)nc(N)c2cc1OC.O=C(O)C(F)(F)F [TCMDC-138177] | 0 (0: NO) | 2000 nM | 8.16 µM | 6.82 µM | 9.5 µM | 0 (0: NO) | 4730 nM
8 | COc1cc2nc(N3CCN(C(=O)c4c(Cl)nsc4-c4ccccc4Cl)CC3)nc(N)c2cc1OC.O=C(O)C(F)(F)F [TCMDC-138186] | 0 (0: NO) | 220 nM | 7.04 µM | 5.89 µM | 8.18 µM | 1 (1: YES) | 990 nM
9 | Cc1ccc(C(=O)Nc2ccc(Nc3ccnc4cc(-c5ccccn5)ccc34)cc2O)cc1.Cl [TCMDC-138205] | 0 (0: NO) | 480 nM | 2.19 µM | 1.27 µM | 3.11 µM | 0 (0: NO) | 540 nM
10 | CN(C)CCNCc1ccc(-c2ccc3c(Nc4ccc(Oc5ccccc5)cc4)ccnc3c2)o1 [TCMDC-138399] | 0 (0: NO) | 330 nM | 6.63 µM | 5.69 µM | 7.57 µM | 1 (1: YES) | 1560 nM
11 | CN(C)CCN(C)Cc1cccc(-c2ccc3c(Nc4ccc(F)cc4Cl)ccnc3c2)c1 [TCMDC-138416] | 0 (0: NO) | 480 nM | 4.85 µM | 6.10 µM | 3.6 µM | 1 (1: YES) | 7020 nM
12 | CN(C)CCNCc1cccc(-c2ccc3c(Nc4ccc(Oc5ccccn5)cc4)ccnc3c2)c1 [TCMDC-138493] | 0 (0: NO) | 220 nM | 4.24 µM | 3.98 µM | 4.49 µM | 1 (1: YES) | 820 nM
13 | COc1cc2nc(N3CCC(CCCC4CCNCC4)CC3)nc(NCc3ccccn3)c2cc1OC.O=C(O)C(F)(F)F [TCMDC-138494] | 0 (0: NO) | 400 nM | 14.55 µM | 18.51 µM | 10.59 µM | 1 (1: YES) | 6860 nM
14 | CN1CCN(CCCNCc2cccc(Nc3nccc(Nc4ccc(Oc5ccccc5)cc4)n3)c2)CC1 [TCMDC-138616] | 0 (0: NO) | 320 nM | 4.92 µM | 4.68 µM | 5.17 µM | 1 (1: YES) | 980 nM
15 | COc1cc2nc(N3CCC(CNC(=O)c4ccc(-c5ccc(-c6noc(C)n6)cc5)cc4)CC3)nc(N)c2cc1OC [TCMDC-138754] | 0 (0: NO) | 110 nM | 4.61 µM | 4.90 µM | 4.33 µM | 1 (1: YES) | 1050 nM
16 | COc1cc2nc(N3CCC(CNCc4ccc(-c5ccc(C(F)(F)F)cc5)cc4)CC3)nc(N)c2cc1OC [TCMDC-138757] | 1 (1: YES) | 17.7 nM | 1.43 µM | 1.43 µM | <1.56 µM | 1 (1: YES) | 100 nM
17 | COc1c(C2CCN(CCN3CCC(CNC(=O)c4ccc(-c5ccc(C#N)cc5)cc4)CC3)CC2)ccc2c1CCCC2 [TCMDC-138859] | 0 (0: NO) | 1170 nM | 3.36 µM | 3.43 µM | 3.3 µM | 0 (0: NO) | 1460 nM
18 | Cl.Clc1ccc(OCCC2CCN(CCCCCCCN3CCC(CCOc4ccc(Cl)c(Cl)c4)CC3)CC2)cc1Cl [TCMDC-138967] | 0 (0: NO) | 470 nM | 2.12 µM | 1.64 µM | 2.6 µM | 0 (0: NO) | 520 nM
19 | C=C[C@H]1CN(CCCCCCC)CC[C@H]1CCNc1ccnc2ccc(OC)cc12 [TCMDC-139204] | 0 (0: NO) | 1080 nM | 2.82 µM | 2.24 µM | 3.4 µM | 0 (0: NO) | 1800 nM
20 | COc1ccc(CNC(=O)c2cnc3c(O)cccc3c2Nc2cccc(NC(=O)c3ccc(Cl)c(Cl)c3)c2)cc1.O=C(O)C(F)(F)F [TCMDC-139607] | 0 (0: NO) | 680 nM | 1.56 µM |  | <1.56 µM | 0 (0: NO) | 1600 nM

From PMC6753678, “Fueling Open Innovation for Malaria Transmission-Blocking Drugs: Hundreds of Molecules Targeting Early Parasite Mosquito Stages” (Frontiers in Microbiology, 2019)
